Legend:
TK-10 = experiment: SRB growth assay, 6 days exposure, renal cancer; assay type: cell-based; settings: TK-10, 6 days
Description: (§1) Arsenic trioxide (1 mg/ml, 10 mg/ampoule, manufactured by Taylor Pharmaceuticals, Decatur, Ill.) was tested at five concentrations each at 10-fold dilutions, i.e., 10^−5, 10^−6, 10^−7, 10^−8 and 10^−9 μg/ml.
(§2) The in vitro tests were performed by incubating the test cells in the presence of the indicated concentration of arsenic trioxide under standard culture conditions for a designated period of time, which is followed by a sulforhodamine B (SRB) protein assay to estimate cell viability or growth. The cell lines are organized into subpanels according to the origin of the cell lines, e.g., leukemia, breast cancer, etc. A description of the cell lines and method of testing is described in Monk et al. (1997, Anticancer Drug Des. 12:533-41) and Weinstein et al., (1997, Science 275:343-9), which are incorporated herein in their entirety.
(§3) The measurement of an effect is expressed in Percentage Growth (PG). The measured effect of the compound on a cell line is calculated according to one or the other of the following two expressions: If (Mean ODtest−Mean ODzero)≧0. then PG=100×(Mean ODtest−Mean ODzero)/(Mean ODctrl−Mean ODzero) If (Mean ODtest−Mean ODzero)<0. then PG=100×(Mean ODtest−Mean ODzero)/(Mean ODzero where: • Mean ODzero=the average of optical density measurements of SRB-derived color just before exposure of cells to the test compounds; • Mean ODtest=the average of optical density measurements of SRB-derived color after exposure of cells to the test compound for a designated period of time; and • Mean ODctrl=the average of optical density measurements of SRB-derived color after with no exposure of cells to the test compound for a designated period of time
(§4) The first two columns describe the subpanel (e.g., leukemia) and cell line (e.g., CCRF-CEM) involved. The next two columns list the Mean ODzero and Mean ODctrl; the next five columns list the Mean ODtest for each of five different concentrations. Each concentration is expressed as the log10 (molar or μg/ml). The next five columns list the calculated PGs for each concentration. The response parameters GI50, TGI and LC50 are interpolated values representing the concentrations at which the PG is +50, 0, and −50, respectively. Sometimes these response parameters cannot be obtained by interpolation. If, for instance, all of the PGs in a given row exceed +50, then none of the three parameters can be obtained by interpolation. In such a case, the value given for each response parameter is the highest concentration tested and is preceded by a “>” sign. This practice is extended similarly to the other possible situations where a response parameter cannot be obtained by interpolation.
(§5) In the first set, the cells from 56 different cancer cell lines were exposed to five concentrations of arsenic trioxide continuously for two days prior to performing the SRB assay. In the second set, the cells from 50 different cell lines (a subset of the first 56 cell lines, plus the renal cancer cell line 786-0) were exposed continuously for six days prior to the SRB assay.

786-O = experiment: SRB growth assay, 6 days exposure, renal cancer; assay type: cell-based; settings: 786-0, 6 days
Description: as §1, §2, §3, §4, §5

CAKI-1 = experiment: SRB growth assay, 6 days exposure, renal cancer; assay type: cell-based; settings: CAKI-1, 6 days
Description: as §1, §2, §3, §4, §5

S12C = experiment: SRB growth assay, 6 days exposure, renal cancer; assay type: cell-based
Description: as §1, §2, §3, §4, §5

A498 = experiment: SRB growth assay, 6 days exposure, renal cancer; assay type: cell-based; settings: A498, 6 days
Description: as §1, §2, §3, §4, §5

[1] = system: NB4 cells, an APL cell line; settings: in vitro; cited from earlier work
refractory APL = settings: 14 of 15 patients with refractory APL; intravenous 10 mg/day for 4-9 weeks; cited from earlier work
OVCAR-8 = experiment: SRB growth assay, 2 days exposure, ovarian cancer; assay type: cell-based
Description: as §1, §2, §3, §4, §5

OVCAR-5 = experiment: SRB growth assay, 2 days exposure, ovarian cancer; assay type: cell-based
Description: as §1, §2, §3, §4, §5

IGROV1 = experiment: SRB growth assay, 2 days exposure, ovarian cancer; assay type: cell-based
Description: as §1, §2, §3, §4, §5

SK-OV-3 = experiment: SRB growth assay, 2 days exposure, ovarian cancer; assay type: cell-based
Description: as §1, §2, §3, §4, §5

## arsenic trioxide
TK-10
  TGI: >1.26E−05
TK-10; Log 10 Concentration −4.9
  Mean Optical Densities: 0.239
  Percent Growth: 13%
TK-10; Log 10 Concentration −5.9
  Mean Optical Densities: 1.103
  Percent Growth: 82%
TK-10; Log 10 Concentration −6.9
  Mean Optical Densities: 1.334
  Percent Growth: 100%
TK-10; Log 10 Concentration −7.9
  Mean Optical Densities: 1.268
  Percent Growth: 95%
TK-10; Log 10 Concentration −8.9
  Mean Optical Densities: 1.356
  Percent Growth: 102%
TK-10; read-out: LC50 (the source's name)
  CC50: > 12.6 µM
786-O
  TGI: 2.77E−06
786-O; Log 10 Concentration −4.9
  Mean Optical Densities: −0.003
  Percent Growth: −100%
786-O; Log 10 Concentration −5.9
  Mean Optical Densities: 0.832
  Percent Growth: 52%
786-O; Log 10 Concentration −6.9
  Mean Optical Densities: 1.786
  Percent Growth: 113%
786-O; Log 10 Concentration −7.9
  Mean Optical Densities: 1.821
  Percent Growth: 116%
786-O; Log 10 Concentration −8.9
  Mean Optical Densities: 1.582
  Percent Growth: 100%
CAKI-1
  TGI: 2.43E−06
CAKI-1; Log 10 Concentration −4.9
  Mean Optical Densities: 0.004
  Percent Growth: −88%
CAKI-1; Log 10 Concentration −5.9
  Mean Optical Densities: 0.491
  Percent Growth: 35%
CAKI-1; Log 10 Concentration −6.9
  Mean Optical Densities: 1.573
  Percent Growth: 117%
CAKI-1; Log 10 Concentration −7.9
  Mean Optical Densities: 1.725
  Percent Growth: 128%
CAKI-1; Log 10 Concentration −8.9
  Mean Optical Densities: 1.254
  Percent Growth: 93%
S12C
  LC50 (concentration killing 50% of cells): > 12.6 µM
  TGI: 5.67E−06
S12C; Log 10 Concentration −4.9
  Mean Optical Densities: 0.013
  Percent Growth: −46%
S12C; Log 10 Concentration −5.9
  Mean Optical Densities: 0.829
  Percent Growth: 86%
S12C; Log 10 Concentration −6.9
  Mean Optical Densities: 1.113
  Percent Growth: 117%
S12C; Log 10 Concentration −7.9
  Mean Optical Densities: 1.141
  Percent Growth: 120%
S12C; Log 10 Concentration −8.9
  Mean Optical Densities: 0.882
  Percent Growth: 92%
A498
  TGI: 4.85E−06
A498; Log 10 Concentration −4.9
  Mean Optical Densities: 0.025
  Percent Growth: −52%
A498; Log 10 Concentration −5.9
  Mean Optical Densities: 0.558
  Percent Growth: 73%
A498; Log 10 Concentration −6.9
  Mean Optical Densities: 0.837
  Percent Growth: 114%
A498; Log 10 Concentration −7.9
  Mean Optical Densities: 0.764
  Percent Growth: 103%
A498; Log 10 Concentration −8.9
  Mean Optical Densities: 0.826
  Percent Growth: 112%
[1]
  apoptosis (programmed cell death): induced apoptosis
Refractory APL
  clinical efficacy: complete morphologic remission without associated bone marrow suppression
OVCAR-8
  TGI: >0.0126 ng/mL
OVCAR-8; log10 conc −4.9
  Percent Growth: 28%
OVCAR-8; log10 conc −5.9
  Percent Growth: 80%
OVCAR-8; log10 conc −6.9
  Percent Growth: 84%
OVCAR-8; log10 conc −7.9
  Percent Growth: 92%
OVCAR-8; log10 conc −8.9
  Percent Growth: 92%
OVCAR-5
  TGI: >0.0126 ng/mL
OVCAR-5; log10 conc −4.9
  Percent Growth: 34%
OVCAR-5; log10 conc −5.9
  Percent Growth: 97%
OVCAR-5; log10 conc −6.9
  Percent Growth: 93%
OVCAR-5; log10 conc −7.9
  Percent Growth: 103%
OVCAR-5; log10 conc −8.9
  Percent Growth: 105%
IGROV1
  TGI: >0.0126 ng/mL
IGROV1; log10 conc −4.9
  Percent Growth: 18%
IGROV1; log10 conc −5.9
  Percent Growth: 102%
IGROV1; log10 conc −6.9
  Percent Growth: 105%
IGROV1; log10 conc −7.9
  Percent Growth: 118%
IGROV1; log10 conc −8.9
  Percent Growth: 111%
SK-OV-3
  TGI: >0.0126 ng/mL
SK-OV-3; log10 conc −4.9
  Percent Growth: 40%
SK-OV-3; log10 conc −5.9
  Percent Growth: 100%
SK-OV-3; log10 conc −6.9
  Percent Growth: 98%
SK-OV-3; log10 conc −7.9
  Percent Growth: 97%
SK-OV-3; log10 conc −8.9
  Percent Growth: 94%

— US6875451B2, “Compositions and methods for the treatment of primary and metastatic neoplastic diseases using arsenic compounds” (PolaRx Biopharmaceuticals Inc., priority 1997, dated 2005)
